This is an account of results in patent US20190125888A1, “TARGETED CONJUGATES AND PARTICLES AND FORMULATIONS THEREOF” (priority 2015, published 2019).

Read-outs that look alike come from different tables or passages of the source. Where a SMILES comes first, the peptide text is derived from it. Bridges are numbered along the chain shown (N, C = ends). [ ]: non-standard residue; d: D form. The star is where a group is joined. NH(CH2)2SS(DM1) = COc1cc2cc(c1Cl)N(C)C(=O)C[C@H](OC(=O)[C@H](C)N(C)C(=O)CCSSCCN*)[C@]1(C)O[C@H]1[C@H](C)[C@@H]1C[C@@](O)(NC(=O)O1)[C@H](OC)/C=C/C=C(\C)C2; Octanoyl = CCCCCCCC(=O)*

Data set [1] can be described thus: Chrom LogP of maytansinoid conjugates. The class given is physicochemical.
In data set [2] the test system is NCI-H524 (ATCC) human lung cancer cells. Format: cell-based. The essentials: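 NCI-H524 cells (5,000/well) exposed to conjugates for 6 hours, washed, then grown a further 66 hours; ten-point threefold dilutions from 20 μM. Proliferation by CellTiter-Glo versus vehicle; IC50 by four-parameter nonlinear regression, measured with and without octreotide competition.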

A short description of data set [3]: Ligand charge of maytansinoid conjugates. The class given is physicochemical.
Data set [4] deals with human SSTR2 (Homo sapiens, UniProt P30874). Briefly: Radioligand-receptor binding assay, [125I] somatostatin, membranes from SSTR2 expressing CHO-K1 cells. The essentials:
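CHO-K1 SSTR2 membranes incubated 4 h with 0.03 nM [125I] somatostatin and conjugates in a 10-point, 6-fold series from 10 uM. Bound radioligand measured after filtration and washing; IC50 by non-linear least-squares regression.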

[5] abbreviates: read-out: H524 IC50 6 h, 6 hours treatment, further 66 hours incubation.
The mark [6] stands for this setting: read-out: H524 IC50 with 100 μM octreotide 6 h, with 100 μM octreotide competition, 6 h treatment.

human SSTR2, sequence (P30874 whole entry): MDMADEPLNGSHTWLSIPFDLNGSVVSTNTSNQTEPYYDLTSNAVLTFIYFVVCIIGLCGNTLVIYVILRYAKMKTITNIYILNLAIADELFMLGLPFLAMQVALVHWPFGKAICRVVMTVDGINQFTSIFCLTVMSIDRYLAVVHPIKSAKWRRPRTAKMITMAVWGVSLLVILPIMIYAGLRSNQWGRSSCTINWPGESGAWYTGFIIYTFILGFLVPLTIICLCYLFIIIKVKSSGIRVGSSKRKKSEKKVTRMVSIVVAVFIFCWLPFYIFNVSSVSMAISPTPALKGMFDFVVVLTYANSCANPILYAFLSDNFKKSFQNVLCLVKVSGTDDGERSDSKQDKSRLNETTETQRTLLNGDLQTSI

By chromatographic logP is commonly meant lipophilicity estimated from chromatographic retention. A higher chromatographic logP goes with a more lipophilic compound. One may read the IC50 as the concentration that inhibits the measured activity by half. Broadly, the Ki is a measure of affinity in units of concentration, obtained from inhibition or displacement. `COc1cc2cc(c1Cl)N(C)C(=O)C[C@H](OC(=O)[C@H](C)N(C)C(=O)CCSSC(C)(C)[C@H](NC(=O)[C@@H]1CSSC[C@H](NC(=O)[C@@H](Cc3ccccc3)NC(=O)NCc3ccccc3)C(=O)N[C@@H](Cc3ccc(O)cc3)C(=O)N[C@H](Cc3c[nH]c4ccccc34)C(=O)N[C@@H](CCCCN)C(=O)N[C@@H]([C@@H](C)O)C(=O)N1)C(N)=O)[C@]1(C)O[C@H]1[C@H](C)[C@@H]1C[C@@](O)(NC(=O)O1)[C@H](OC)/C=C/C=C(\C)C2` [Conjugate 7]: the chromatographic logP in data set [1] came to 2.6. Besides, the IC50 in data set [2] (setting [5]) was 4.7 nM; in data set [2] (setting [6]), 181 nM. Further, the Ligand charge entry in data set [3] is on record as “+1”. The molecule further displayed a Ki in data set [4] of 0.025 nM.

Take `COc1cc2cc(c1Cl)N(C)C(=O)C[C@H](OC(=O)[C@H](C)N(C)C(=O)CCSSC(C)(C)[C@H](NC(=O)[C@@H]1CSSC[C@H](NC(=O)[C@H](N)Cc3ccccc3)C(=O)N[C@@H](Cc3ccc(O)cc3)C(=O)N[C@H](Cc3c[nH]c4ccccc34)C(=O)N[C@@H](CCCCNC(=O)NCCCCCCN)C(=O)N[C@@H]([C@@H](C)O)C(=O)N1)C(N)=O)[C@]1(C)O[C@H]1[C@H](C)[C@@H]1C[C@@](O)(NC(=O)O1)[C@H](OC)/C=C/C=C(\C)C2` [Conjugate 57]: the chromatographic logP in data set [1] was 2.12. In addition, the IC50 is 408 nM in data set [2] (setting [5]) and 652 nM in data set [2] (setting [6]). Further, the Ligand charge result in data set [3] was “+2”. Moreover, the affinity in data set [4] corresponds to a Ki of 69 nM.

With `COc1cc2cc(c1Cl)N(C)C(=O)C[C@H](OC(=O)[C@H](C)N(C)C(=O)CCSSC[C@H](NC(=O)[C@@H]1CSSC[C@H](NC(=O)[C@@H](Cc3ccccc3)NC(=O)Nc3cc(C(F)(F)F)cc(C(F)(F)F)c3)C(=O)N[C@@H](Cc3ccc(O)cc3)C(=O)N[C@H](Cc3c[nH]c4ccccc34)C(=O)N[C@@H](CCCCN)C(=O)N[C@@H]([C@@H](C)O)C(=O)N1)C(N)=O)[C@]1(C)O[C@H]1[C@H](C)[C@@H]1C[C@@](O)(NC(=O)O1)[C@H](OC)/C=C/C=C(\C)C2` [Conjugate 38], the chromatographic logP in data set [1] turned out to be 3.47. Besides, the IC50 in data set [2] (setting [5]) worked out at 261 nM; in data set [2] (setting [6]), 296 nM. The Ligand charge result in data set [3] is reported as “+1”. In data set [4], this molecule gave a Ki of 5.34 nM.

Turning to `COc1cc2cc(c1Cl)N(C)C(=O)C[C@H](OC(=O)[C@H](C)N(C)C(=O)CCSSC(C)(C)[C@H](NC(=O)[C@@H]1CSSC[C@H](NC(=O)[C@@H](Cc3ccccc3)NS(=O)(=O)Cc3ccc(C(F)(F)F)cc3)C(=O)N[C@@H](Cc3ccc(O)cc3)C(=O)N[C@H](Cc3c[nH]c4ccccc34)C(=O)N[C@@H](CCCCN)C(=O)N[C@@H]([C@@H](C)O)C(=O)N1)C(N)=O)[C@]1(C)O[C@H]1[C@H](C)[C@@H]1C[C@@](O)(NC(=O)O1)[C@H](OC)/C=C/C=C(\C)C2` [Conjugate 14], the chromatographic logP in data set [1] is 3.23. Moreover, the IC50 in data set [2] (setting [5]) turned out to be 14 nM; in data set [2] (setting [6]), 331 nM. The Ligand charge result in data set [3] is on record as “+1”. The same molecule gave a Ki in data set [4] of 0.041 nM.

Regarding `COc1cc2cc(c1Cl)N(C)C(=O)C[C@H](OC(=O)[C@H](C)N(C)C(=O)CCSSC[C@H](NC(=O)[C@@H]1CSSC[C@H](NC(=O)[C@@H](Cc3ccccc3)NC(=O)NCc3ccccc3)C(=O)N[C@@H](Cc3ccc(O)cc3)C(=O)N[C@H](Cc3c[nH]c4ccccc34)C(=O)N[C@@H](CCCCN)C(=O)N[C@@H]([C@@H](C)O)C(=O)N1)C(N)=O)[C@]1(C)O[C@H]1[C@H](C)[C@@H]1C[C@@](O)(NC(=O)O1)[C@H](OC)/C=C/C=C(\C)C2` [Conjugate 28], in data set [1], the chromatographic logP amounted to 2.51. Further, the IC50 in data set [2] (setting [5]) turned out to be 6.1 nM; in data set [2] (setting [6]) it was 31 nM. For the same molecule, in data set [3], the Ligand charge entry was “+1”. This molecule displayed a Ki in data set [4] of 0.057 nM.

For the molecule `COc1cc2cc(c1Cl)N(C)C(=O)C[C@H](OC(=O)[C@H](C)N(C)C(=O)CCC(C)(C)SSC[C@H](NC(=O)[C@@H]1CSSC[C@H](NC(=O)[C@H](N)Cc3ccccc3)C(=O)N[C@@H](Cc3ccc(O)cc3)C(=O)N[C@H](Cc3c[nH]c4ccccc34)C(=O)N[C@@H](CCCCN)C(=O)N[C@@H]([C@@H](C)O)C(=O)N1)C(N)=O)[C@]1(C)O[C@H]1[C@H](C)[C@@H]1C[C@@](O)(NC(=O)O1)[C@H](OC)/C=C/C=C(\C)C2` [Conjugate 4], the chromatographic logP in data set [1] was determined as 2.21. The IC50 in data set [2] (setting [5]) came to 78 nM; in data set [2] (setting [6]), 348 nM. Moreover, the Ligand charge result in data set [3] is recorded as “+2”. The affinity in data set [4], expressed as Ki, was 0.075 nM.

With `COc1cc2cc(c1Cl)N(C)C(=O)C[C@H](OC(=O)[C@H](C)N(C)C(=O)CCSSC[C@H](NC(=O)[C@@H]1CSSC[C@H](NC(=O)[C@H](N)Cc3ccccc3)C(=O)N[C@@H](Cc3ccc(O)cc3)C(=O)N[C@H](Cc3c[nH]c4ccccc34)C(=O)N[C@@H](CCCCNC(=O)NCCCCCCN)C(=O)N[C@@H]([C@@H](C)O)C(=O)N1)C(N)=O)[C@]1(C)O[C@H]1[C@H](C)[C@@H]1C[C@@](O)(NC(=O)O1)[C@H](OC)/C=C/C=C(\C)C2` [Conjugate 56], in data set [1], the chromatographic logP was determined as 1.92. The IC50 in data set [2] (setting [5]) was found to be 246 nM; in data set [2] (setting [6]), 361 nM. Further, the Ligand charge result in data set [3] was “+2”. The molecule further displayed a Ki in data set [4] of 1900 nM.

In data set [1], `COc1cc2cc(c1Cl)N(C)C(=O)C[C@H](OC(=O)[C@H](C)N(C)C(=O)CCSSC[C@H](NC(=O)[C@@H]1CSSC[C@H](NC(=O)[C@@H](Cc3ccccc3)NS(C)(=O)=O)C(=O)N[C@@H](Cc3ccc(O)cc3)C(=O)N[C@H](Cc3c[nH]c4ccccc34)C(=O)N[C@@H](CCCCN)C(=O)N[C@@H]([C@@H](C)O)C(=O)N1)C(N)=O)[C@]1(C)O[C@H]1[C@H](C)[C@@H]1C[C@@](O)(NC(=O)O1)[C@H](OC)/C=C/C=C(\C)C2` [Conjugate 34] displayed a chromatographic logP of 2.57. Also, the IC50 in data set [2] (setting [5]) is 13 nM; in data set [2] (setting [6]), 83 nM. The Ligand charge entry in data set [3] is given as “+1”. This molecule showed a Ki in data set [4] of 0.18 nM.

For `CCCCCCCC(=O)N[C@H](Cc1ccccc1)C(=O)N[C@H]1CSSC[C@@H](C(=O)NCCSSCCC(=O)N(C)[C@@H](C)C(=O)O[C@H]2CC(=O)N(C)c3cc(cc(OC)c3Cl)C/C(C)=C/C=C/[C@@H](OC)[C@@]3(O)C[C@H](OC(=O)N3)[C@@H](C)[C@@H]3O[C@@]23C)NC(=O)[C@H]([C@@H](C)O)NC(=O)[C@H](CCCCN)NC(=O)[C@@H](Cc2c[nH]c3ccccc23)NC(=O)[C@H](Cc2ccc(O)cc2)NC1=O` [Conjugate 21] (Octanoyl-[dF]CY[dW]KTC-{NH(CH2)2SS(DM1)}; disulfide 2-7), in data set [1], the chromatographic logP was 3.48. Moreover, the Ligand charge entry in data set [3] is reported as “+1”. The Ki in data set [4] was determined as 1.29 nM.

Consider `COc1cc2cc(c1Cl)N(C)C(=O)C[C@H](OC(=O)[C@H](C)N(C)C(=O)CCSSC[C@H](NC(=O)[C@@H]1CSSC[C@H](NC(=O)[C@@H](Cc3ccccc3)NC(=O)NCCC(F)(F)C(F)(F)C(F)(F)C(F)(F)C(F)(F)C(F)(F)C(F)(F)C(F)(F)F)C(=O)N[C@@H](Cc3ccc(O)cc3)C(=O)N[C@H](Cc3c[nH]c4ccccc34)C(=O)N[C@@H](CCCCN)C(=O)N[C@@H]([C@@H](C)O)C(=O)N1)C(N)=O)[C@]1(C)O[C@H]1[C@H](C)[C@@H]1C[C@@](O)(NC(=O)O1)[C@H](OC)/C=C/C=C(\C)C2` [Conjugate 40], for which, in data set [1], the chromatographic logP amounted to 4. In data set [3], the Ligand charge entry is reported as “+1”. The molecule also registered a Ki in data set [4] of 3.51 nM.
